Measured values as given in patent US20250296971A1, “GASTRIC INHIBITORY PEPTIDE RECEPTOR LIGANDS” (priority 2021, published 2025).
*1 amine or outer side, *2 acyl side, *3 side chain or, on linkers, in order; H or OH if unused. Where a SMILES comes first, the peptide text is derived from it. Bridges are numbered along the chain shown (N, C = ends). [ ]: non-standard residue; d: D form. The star is where a group is joined. NH(1-deoxy-D-glucityl) = OC[C@@H](O)[C@@H](O)[C@H](O)[C@@H](O)CN*; DOTA = O=C(O)CN1CCN(CC(=O)O)CCN(CC(=O)*)CCN(CC(=O)O)CC1; Trp(5-Cl) = N[C@@H](Cc1c[nH]c2ccc(Cl)cc12)C(=O)O; Pyridine(2,6-diCH2) = c1cc(C[*:1])nc(C[*:2])c1; Pro(4R-NH2) = N[C@H]1CN[C@H](C(=O)O)C1; Glutaryl = O=C(CCCC(=O)[*:2])[*:1]; X1 = O=C(CN1CCC(N[*:1])CC1)[*:2]; Api = NC1(C(=O)O)CCNCC1

Experiments:
[1] = Plasma stability assay, mouse plasma; format: in vitro ADME; details: 37° C., % intact compound remaining after 4 h or 24 h
In short: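 K2EDTA mouse or human plasma spiked with compound from 0.5 mM DMSO stock, incubated at 37 °C for 0, 4 and 24 h in duplicate. Proteins precipitated with acetonitrile/1% TFA, internal standard added; recovery and carry-over evaluated.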

[2] = target: T1, GIPR (CHO-K1-hGIPR cells) (Homo sapiens, UniProt P48546); assay: FACS binding assay; details: competition with 20 nM GIP-057, 4° C., 1 hour, read-out: pIC50 Category (converted)
T1 construct: host or cells: CHO-K1
T1 sequence (P48546 22-466): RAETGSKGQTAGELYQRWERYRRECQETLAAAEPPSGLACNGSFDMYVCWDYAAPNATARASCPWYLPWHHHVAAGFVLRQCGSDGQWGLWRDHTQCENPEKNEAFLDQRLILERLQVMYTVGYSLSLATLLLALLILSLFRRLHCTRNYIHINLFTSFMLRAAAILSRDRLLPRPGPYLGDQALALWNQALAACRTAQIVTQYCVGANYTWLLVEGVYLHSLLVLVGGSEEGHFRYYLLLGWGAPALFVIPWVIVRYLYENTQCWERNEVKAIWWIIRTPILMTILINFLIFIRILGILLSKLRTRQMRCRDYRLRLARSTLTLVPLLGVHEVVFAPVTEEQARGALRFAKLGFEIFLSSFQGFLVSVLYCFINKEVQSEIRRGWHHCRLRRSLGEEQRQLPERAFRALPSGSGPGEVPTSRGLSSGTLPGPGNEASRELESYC
In short: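 Peptide binding read by flow cytometry as APC-channel median fluorescence, fitted with a four-parameter logistic to yield EC50 or IC50. Cells were hGIPR-transfected CHO-K1 in PBS with 1% FCS, detected with 1 μg/mL APC-streptavidin, 30 min on ice.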

[3] = target: Recombinant soluble human NEP (Homo sapiens, UniProt P08473); assay: Proteolytic stability assay against NEP; details: NEP 100 ng/mL, compound 10 μM, 37° C., % intact compound remaining
[4] = target: T2, Human GIPR (Homo sapiens, UniProt P48546); assay: Radioligand binding assay, human GIPR; details: 111In-labeled compound, 6 h, 37° C., read-out: pKD Category (converted)
T2 construct: host or cells: CHO-K1 or CHO-VGT
T2 sequence (P48546 22-466): T1 sequence (P48546 22-466)
Method: In order to assess the affinity of ^111In-labeled compounds to the GIPR receptor of different species, a radioligand binding assay was established.
CHO-K1 cells (GenScript Biotech, #M00486) were stably transfected with the human GIPR. CHO-K1-hGIPR cells were cultured in Ham's F12 medium (Sigma-Aldrich, #N4888) including 10% fetal calf serum (FCS), 2 mM L-glutamine, 100 U/mL penicillin, 100 µg/mL streptomycin, 200 µg/mL Zeocin and 100 µg/mL HygromycinB. To evaluate the species cross-reactivity, CHO-VGT cells were transfected with the human, dog, rat and mouse GIPR (Inscreenex GmbH), which were cultured in DMEM/Ham's F12 Medium 1:1 (Biochrom, #F485) including 5% fetal calf serum (FCS), 2 mM L-glutamine, 100 U/mL penicillin and 100 μg/mL streptomycin. Cells were detached with Accutase (Biolegend, #BLD-423201) and counted using a particle counter (CASY Model TT; Schärfe Systems). Cell concentrations were adjusted to 3×10^5 mL^−1, and 1.000 μL of the suspension per well were dispensed into flat-clear-bottom 24 well plates.
Approximately 24 hours after re-seeding, the medium was aspirated and the cells were washed once with 700 μL assay medium (Ham's medium with 20 mM HEPES). […]
At the end of incubation time, cells were washed and subsequently harvested in 300 μL RIPA buffer containing PIC. Radioactivity of the cell lysate of each well was counted using a gamma counter (Perkin Elmer). […]

Sequence of Recombinant soluble human NEP (P08473 52-750 limits assumed): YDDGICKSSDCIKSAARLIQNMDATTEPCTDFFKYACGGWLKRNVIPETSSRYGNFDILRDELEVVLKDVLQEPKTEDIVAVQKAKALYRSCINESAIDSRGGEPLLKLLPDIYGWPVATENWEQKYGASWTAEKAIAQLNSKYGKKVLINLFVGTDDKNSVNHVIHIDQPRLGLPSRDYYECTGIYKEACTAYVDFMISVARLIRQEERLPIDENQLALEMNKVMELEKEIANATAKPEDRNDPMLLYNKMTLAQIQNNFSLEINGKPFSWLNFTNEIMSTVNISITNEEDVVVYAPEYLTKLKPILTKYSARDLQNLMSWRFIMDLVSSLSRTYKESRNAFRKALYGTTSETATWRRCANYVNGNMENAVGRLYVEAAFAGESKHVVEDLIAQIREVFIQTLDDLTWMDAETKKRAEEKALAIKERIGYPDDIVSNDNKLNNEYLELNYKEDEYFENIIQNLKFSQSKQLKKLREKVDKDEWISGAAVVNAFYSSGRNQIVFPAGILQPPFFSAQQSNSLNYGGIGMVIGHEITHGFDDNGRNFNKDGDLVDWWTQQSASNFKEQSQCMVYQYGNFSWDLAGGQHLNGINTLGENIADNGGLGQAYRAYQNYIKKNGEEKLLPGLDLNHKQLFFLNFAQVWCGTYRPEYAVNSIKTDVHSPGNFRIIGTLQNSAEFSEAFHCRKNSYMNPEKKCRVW

- Mouse plasma stability category [1]: A (>80% intact after 24 hours)
- IC50 [2]: < 10 nM
- NEP stability category [3]: A (>80% intact after 24 hours)
- Kd [4]: < 0.316 nM
SMILES: CC[C@H](C)[C@@H]1NC(=O)[C@H](CC(C)C)NC(=O)C2(CCN(C(=O)CN3CCN(CC(=O)O)CCN(CC(=O)O)CCN(CC(=O)O)CC3)CC2)NC(=O)[C@@H](NC(=O)[C@@H](CC(C)C)NC(=O)[C@H](CCC(=O)O)NC(=O)[C@@H]2C[C@@H](N)CN2C(=O)[C@H](Cc2c[nH]c3ccc(Cl)cc23)NC(=O)[C@H](Cc2c[nH]c3ccccc23)NC(=O)[C@H](CC(=O)O)NC(=O)CCCC(=O)NC[C@H](O)[C@@H](O)[C@H](O)[C@H](O)CO)CSCc2cccc(n2)CSC[C@@H](C(=O)NC2CCN(CC(=O)N[C@H](CCC(=O)NC[C@H](O)[C@@H](O)[C@H](O)[C@H](O)CO)C(N)=O)CC2)NC1=O [GIP-001, AGLU-Glutar-Asp-Trp-5Clw-Tap-Glu-leu-[Cys(2Lut)-Apc(DOTA)-Leu-Ile-Cys]-APAc-glu(AGLU)-NH2] ({NH(1-deoxy-D-glucityl)-Glutaryl}-DW[Trp(5-Cl)][Pro(4R-NH2)]E[dL]C[Api](DOTA)LIC[X1][dE](NH(1-deoxy-D-glucityl))-NH2; linker 7-11 via Pyridine(2,6-diCH2))
